Laboratory results published in patent publication US6437138B1, “3-pyridyloxymethyl heterocyclic ether compounds useful in controlling chemical synaptic transmission” (priority 1996, dated 2002).

Compound | melting point
Cl.Cl.Clc1ccc(-c2cncc(OC[C@H]3CCCN3)c2)cc1 [Example 139, 5-(4-Chlorophenyl)-3-(2-(R)-pyrrolidinylmethoxy)pyridine Dihydrochloride] | 183 to 185 °C
CCCCCCC#Cc1cc(OC[C@@H]2CCCN2)cnc1Cl.Cl.Cl [Example 140, 6-Chloro-5-(1-octynyl)-3-(2-(S)-pyrrolidinylmethoxy)pyridine Dihydrochloride] | 133 to 135 °C
CN1CCC[C@@H]1COc1cncc(-c2ccc(Cl)cc2)c1.Cl.Cl [Example 141, 5-(4-Chlorophenyl)-3-(1-methyl-2-(R)-pyrrolidinylmethoxy)pyridine Dihydrochloride] | 223 to 225 °C
CCCCCCC#Cc1cncc(OC[C@H]2CCCN2C)c1.Cl.Cl [Example 145, 3-(1-Methyl-2-(R)-pyrrolidinylmethoxy)-5-(1-octynyl)pyridine Dihydrochloride] | 102 to 105 °C
CCCCCCC#Cc1cc(OC[C@@H]2CCCN2C)cnc1Cl.Cl.Cl [Example 146, 6-Chloro-3-(1-methyl-2-(S)-pyrrolidinylmethoxy)-5-(1-octynyl)pyridine Dihydrochloride] | 223 to 225 °C
CN1CCC[C@H]1COc1cnc(Cl)c(-c2cccnc2)c1.Cl.Cl [Example 147, 6-Chloro-3-(1-methyl-2-(S)-pyrrolidinylmethoxy)-5-(3-pyridyl)pyridine Dihydrochloride] | 108 to 110 °C
CN1CCC[C@H]1COc1cnc(Cl)c(C=CC=CC(C)(C)C)c1.Cl.Cl [Example 149, 6-Chloro-5-(5,5-dimethyl-1,3-hexadienyl)-3-(1-methyl-2-(S)-pyrrolidinylmethoxy)pyridine Dihydrochloride] | 220 °C
Cl.Cl.Clc1ccc(-c2cc(OC[C@@H]3CCCN3)cnc2Cl)cc1 [Example 150, 6-Chloro-5-(4-chlorophenyl)-3-(2-(S)-pyrrolidinylmethoxy)pyridine Dihydrochloride] | 86 to 89 °C
CN1CCC[C@H]1COc1cnc(Cl)c(-c2ccc(Cl)cc2)c1.Cl.Cl [Example 151, 6-Chloro-5-(4-chlorophenyl)-3-(1-methyl-2-(S)-pyrrolidinylmethoxy)pyridine Dihydrochloride] | 183 to 185 °C
CN1CCC[C@H]1COc1cnc(Cl)c(-c2cccs2)c1.Cl.Cl [Example 153, 6-Chloro-3-(1-methyl-2-(S)-pyrrolidinylmethoxy)-5-(2-thienyl)pyridine Dihydrochloride] | 160 to 163 °C
Cl.Nc1cccc(-c2cncc(OC[C@@H]3CCCN3)c2)c1 [Example 158, 5-(3-Aminophenyl)-3-(2-(S)-pyrrolidinylmethoxy)pyridine Hydrochlorid] | 68 to 70 °C
CC(C)(C)C=CC=Cc1cncc(OC[C@@H]2CCCN2)c1.Cl.Cl [Example 160, 5-(5,5-Dimethyl-1,3-hexadienyl)3-(2-(S)-pyrrolidinylmethoxy)pyridine Dihydrochloride] | 92 to 94 °C
C=Cc1cncc(OC[C@@H]2CCN2)c1.Cl.Cl [Example 162, 3-(2-(S)-Azetidinylmethoxy)-5-ethenylpyridine Dihydrochloride] | 88 to 90 °C
C=Cc1cncc(OC[C@@H]2CCCN2)c1.Cl.Cl [Example 164, 5-Ethenyl-3-(2-(S)-pyrrolidinylmethoxy)pyridine Dihydrochloride] | 97 °C (dec.)
C=Cc1cc(OC[C@H]2CCCN2)cnc1Cl.Cl [Example 167, 6-Chloro-5-ethenyl-3-(2-(R)-pyrrolidinylmethoxy)pyridine Hydrochloride] | 182 to 184 °C
C=Cc1cc(OC[C@H]2CCCN2C)cnc1Cl.Cl [Example 168, 6-Chloro-5-ethenyl-3-(1-methyl-2-(R)-pyrrolidinylmethoxy)pyridine Hydrochloride] | 173 to 175 °C
Cl.Clc1ncc(OC[C@@H]2CCCN2)cc1-c1cncnc1 [Example 169, 6-Chloro-5-(5-pyrimidinyl)-3-(2-(S)-pyrrolidinylmethoxy)pyridine Hydrochloride] | 230 °C (dec.)
CN1CC[C@H]1COc1cnc(Cl)c(-c2cncnc2)c1.Cl [Example 170, 6-Chloro-3-(1-methyl-2-(S)-azetidinylmethoxy)-5-(5-pyrimidinyl)pyridine Hydrochloride] | 143 to 144 °C
Cl.Cl.c1ncc(-c2cncc(OC[C@@H]3CCN3)c2)cn1 [Example 171, 3-(2-(S)-Azetidinylmethoxy)-5-(5-pyrimidinyl)pyridine Dihydrochloride] | 185 °C (dec.)
Cl.Cl.Clc1ncc(OC[C@@H]2CCN2)cc1-c1cncnc1 [Example 172, 3-(2-(S)-Azetidinylmethoxy)-6-chloro-5-(5-pyrimidinyl)pyridine Dihydrochloride] | 144 °C (dec.)

Compound | melting point
Cl.Clc1ncc(OC[C@H]2CCCN2)cc1-c1cncnc1 [Example 173, 6-Chloro-5-(5-pyrimidinyl)-3-(2-(R)-pyrrolidinylmethoxy)pyridine Hydrochloride] | 210 °C (dec.)
Cl.Cl.Cl.c1ncc(-c2cncc(OC[C@@H]3CCCN3)c2)cn1 [Example 174, 5-(5-Pyrimidinyl)-3-(2-(S)-pyrrolidinylmethoxy)pyridine Trihydrochloride] | 110 to 112 °C
C#Cc1cc(OC[C@@H]2CCN2)cnc1Cl.Cl [Example 175, 3-(2-(S)-Azetidinylmethoxy)-6-chloro-5-ethynylpyridine Hydrochloride] | 90 °C (dec.)
C=CCc1cncc(OC[C@@H]2CCCN2C)c1.Cl.Cl [Example 177, 5-Allyl-3-(1-methyl-2-(S)-pyrrolidinylmethoxy)pyridine Dihydrochloride] | 65 to 67 °C
C=CCc1cc(OC[C@@H]2CCN2)cnc1Cl.Cl [Example 178, 5-Allyl-3-(2-(S)-azetidinylmethoxy)-6-chloropyridine Hydrochloride] | 90 to 92 °C
C=CCc1cc(OC[C@@H]2CCN2C)cnc1Cl.Cl [Example 179, 5-Allyl-3-(1-methyl-2-(S)-azetidinylmethoxy)-6-chloropyridine Hydrochloride] | 109 to 111 °C
CN1CCC[C@H]1COc1cnc(Cl)c(-c2cncnc2)c1.Cl [Example 182, 6-Chloro-3-(1-methyl-2-(S)-pyrrolidinylmethoxy)-5-(5-pyrimidinyl)pyridine Hydrochloride] | 200 to 202 °C
C=CCc1cc(OC[C@@H]2CCCN2C)cnc1Cl.Cl [Example 184, 5-Allyl-6-chloro-3-(1-methyl-2-(S)-pyrrolidinylmethoxy)pyridine Hydrochloride] | 150 to 152 °C
C=CCc1cc(OC[C@H]2CCCN2)cnc1Cl.Cl [Example 185, 5-Allyl-6-chloro-3-(2-(R)-pyrrolidinylmethoxy)pyridine Hydrochloride] | 90 to 92 °C
Cl.Clc1ncc(OC[C@H]2CCN2)cc1-c1ccccc1 [Example 186, 3-(2-(R)-Azetidinylmethoxy)-6-chloro-5-phenylpyridine Hydrochloride] | 143 to 145 °C
C=Cc1ncc(OC[C@@H]2CCCN2)cc1C.Cl [Example 187, 6-Ethenyl-5-methyl-3-(2-(S)-pyrrolidinylmethoxy)pyridine Hydrochloride] | 168 to 170 °C
C=Cc1ncc(OC[C@@H]2CCCN2C)cc1C.Cl [Example 188, 6-Ethenyl-5-methyl-3-(1-methyl-2-(S)-pyrrolidinylmethoxy)pyridine Hydrochloride] | 50 °C (dec.)
CN1CC[C@@H]1COc1cnc(Cl)c(-c2ccccc2)c1.Cl [Example 189, 6-Chloro-3-(1-methyl-2-(R)-azetidinylmethoxy)-5-phenylpyridine Hydrochloride] | 173 to 175 °C
C#Cc1cc(OC[C@H]2CCN2)cnc1Cl.Cl [Example 190, 3-(2-(R)-Azetidinylmethoxy)-6-chloro-5-ethynylpyridine Hydrochloride] | 155 to 157 °C
C=Cc1cc(OC[C@@H]2CCCN2C)cnc1Cl.Cl [Example 192, 6-Chloro-5-ethenyl-3-(1-methyl-2-(S)-pyrrolidinylmethoxy)pyridine Hydrochloride] | 182 to 184 °C
COCCOc1cncc(OC[C@@H]2CCCN2)c1.Cl.Cl [Example 197, 5-Methoxyethoxy-3-(2-(S)-pyrrolidinylmethoxy)pyridine Dihydrochloride] | 182 to 184 °C
Cl.Cl.c1ccc(COc2cncc(OC[C@@H]3CCN3)c2)cc1 [Example 199, 3-(2-(S)-Azetidinylmethoxy)-5-benzyloxypyridine Dihydrochloride] | 172 to 174 °C
CN1CC[C@H]1COc1cncc(OCc2ccccc2)c1.Cl [Example 200, 5-Benzyloxy-3-(1-methyl-2-(S)-azetidinylmethoxy)pyridine Hydrochloride] | 132 to 134 °C
C=Cc1ccc(OC[C@@H]2CCN2)cn1.Cl.Cl [Example 201, 3-(2-(S)-Azetidinylmethoxy)-6-ethenylpyridine Dihydrochloride] | 102 to 104 °C
C=Cc1ccc(OC[C@@H]2CCN2C)cn1.Cl.Cl [Example 202, 6-Ethenyl-3-(1-methyl-2-(S)-azetidinylmethoxy)pyridine Dihydrochloride] | 105 to 107 °C
